Reference: patent US10857201B2, “NNIF and nNIF-related peptides and related methods” (UNIVERSITY OF UTAH RESEARCH FOUNDATION, priority 2016, dated 2020)

Experiments:
[1] = test system: nuclear chromatin decondensation in PMNs; assay: Nuclear decondensation assay in PMA-treated neutrophils; format: cell-based, human; conditions: PMA 20 nM; peptides 1 nM, Cl-amidine 10 μM, sivelestat 200 nM
Description: FIG. 7B is a graph depicting nuclear areas that were measured (n=4) using IMAGEJ™ software (mean nuclear pixel area per cell±SEM). Paired Student's t test, *P<0.05, § P=0.057.
FIG. 12A depicts nuclear decondensation (white arrowheads and magnified image) that were assessed as in FIGS. 7A-7E after a 1 hour preincubation in medium alone, with neutrophil elastase (NE) inhibitor sivelestat (SIVL; 200 nM), or with CRISPP or CRISPP-SCR (both 1 nM) followed by treatment with PMA (20 nM) and an additional 1 hour incubation (n=3). Green fluorescence=nuclear DNA, (60× magnification, scale bar=20 μm). Nuclear area was quantified using IMAGEJ™ software (nuclear pixel area per cell±SEM). One way ANOVA with Tukey's post hoc testing; **P<0.01, ***P<0.001.
Nuclear decondensation was identified as described (see Papayannopoulos V, et al., J Cell Biol. 2010; 191 (3):677-91). Five randomly selected high-power visual fields per sample were captured via confocal microscopy and analyzed for nuclear area using the cell-permeable, fluorescent DNA dye SYTO® Green. The nuclear pixel areas of >100 individual cells per high-power field were determined using IMAGEJ™ software (NIH).

PMN chemotaxis = assay: IL-8 induced chemotaxis, modified Boyden chamber; format: cell-based, human; conditions: IL-8 2 ng/mL, peptides 1 nM
Description: FIG. 6D is a graph depicting chemotaxis in response to IL-8 (2 ng/mL) that was examined in a Boyden chamber assay. The dashed line indicates the response to IL-8 alone arbitrarily set at 1.
Chemotaxis by PMNs isolated from healthy adult donors was assessed using a modified Boyden chamber assay ± a 1 hour pre-incubation with nNIF (1 nM), CRISPP (1 nM), or CRISPP-SCR (1 nM). Recombinant human IL-8 (2 ng/mL) was used as the chemoattractant. Chemotaxis through a 5 micron filter was determined by counting PMNs in 10 randomly selected high-power fields as previously described (see Hill H R, et al., Lancet. 1974; 2 (7881):617-9). In separate experiments, nNIF, CRISPP, or CRISPP-SCR (all at 1 nM) were evaluated for chemoattractant activity using the same system.
Without being bound by any specific theory, it was hypothesized that placentally expressed HTRA1, a serine protease, regulates the formation of NET-inhibitory peptides through cleavage of AAT. To test this hypothesis, term and preterm placenta were assessed for HTRA1 expression via western blotting. HTRA1 and AAT plasma expression from term and preterm infants and adults were determined by ELISA. […] Carboxy-terminus fragments of AAT were detected using western blotting and mass spectrometry. […] Reactive oxygen species were assessed using flow cytometry, chemotaxis using a modified Boyden chamber assay, and bacterial killing using E. coli.

previously-formed NETs = assay: Post-treatment of previously formed NETs (dismantling); format: cell-based, human; conditions: agent added after LPS stimulation; nNIF, CRISPP 1 nM; DNase 3.78 U/mL
Description: FIG. 4A is a series of images depicting neutrophils isolated from venous blood of healthy adults that were incubated in medium alone (Control) or activated with LPS (100 ng/mL). CRISPP (1 nM) was added at 0, 30, or 60 minutes after LPS, and the presence of NETs was assessed by live cell imaging as in FIG. 1A after an additional 1 hour of incubation (20× magnification; scale bar=100 μm). The images are representative of three separate experiments.
For selected experiments, primary PMNs were pre-incubated with autologous plasma, cord blood plasma, nNIF (0.2-70 nM), CRISPP (0.2-70 nM), nNIF-SCR (1 nM), or CRISPP-SCR (1 nM) for one hour prior to stimulation. After pre-incubation and/or stimulation, PMNs were gently washed with PBS and incubated with a mixture of cell permeable (SYTO® Green, MOLECULAR PROBES®) and impermeable (SYTOX® Orange, MOLECULAR PROBES®) DNA fluorescent dyes. Confocal microscopy was accomplished using a FV1000 IX81 confocal microscope and FLUOVIEW™ software (OLYMPUS™). Both 20× and 60× objectives were used. Z-series images were obtained at a step size of 1 μm over a range of 20 μm for each field. FLUOVIEW™ and ADOBE™ PHOTOSHOP™ CS2 software was used for image processing.

[2] = test system: LPS-induced peritoneal NET formation; assay: Mouse model of LPS-induced peritonitis (in vivo NET formation); conditions: C57BL/6 mice, i.p. LPS
Description: C57/BL6 or Swiss-Webster mice were pretreated in blinded fashion with CRISPP (10 mg/kg), nNIF (10 mg/kg), or CRISPP-SCR (10 mg/kg) by i.p. injection 1 hour prior to infection (E. coli, 4.5×10^7 cfu/mouse, i.p.) or inoculation (LPS, 25 mg/kg, i.p.) (SIGMA-ALDRICH®). Control mice were injected with saline alone. The mice were sacrificed in a CO2 chamber 3 hours post-infection/inoculation, and the peritoneal fluid and membrane samples were harvested. Briefly, the abdomen was disinfected and opened in the midline without injuring the muscle. The peritoneal cavity was lavaged with sterile saline solution (1 mL) and analyzed for in vivo NET formation, bacteriology, and leukocyte accumulation. NETs in the peritoneal fluid were qualitatively and quantitatively analyzed using live cell imaging with confocal microscopy and NET-associated histone H3 release assays. NETs on the serosal surface of the peritoneal membrane were assessed quantitatively using live cell imaging, followed by standardized grid analysis of five randomly selected high-power visual fields per tissue sample (IMAGEJ™ software, NIH). Peritoneal bacterial colony forming unit (cfu) counts were quantified by permeabilizing all recovered leukocytes with 0.1% Triton X-100 for 10 minutes and performing serial dilutions and bacterial cultures on 5% sheep blood agar plates (HARDY DIAGNOSTICS™). After a 24-hour incubation, bacterial counts were determined. Total leukocyte counts in the peritoneal lavage were determined in Neubauer chambers using an optical microscope after dilution in Turk's solution (2% acetic acid). Differential leukocyte analysis was performed using a 60× oil immersion objective to assess morphology of cyto-centrifuged cells stained with May-Gruenwald-Giemsa dye. All mice were included in the final analysis.

Row | Substance | nuclear decondensation (number of decondensed nuclei) [1] | IL-8 induced chemotaxis (PMN chemotaxis) | degradation or dismantling of previously-formed NETs (previously-formed NETs) | LPS-induced peritoneal NET formation [2]
1 | KFNKPFVFLMIEQNTKSPLFMGKVVNPTQ (listed as Homo sapiens) [nNIF] | dramatically reduced | did not inhibit | do not degrade or dismantle | inhibited
2 | M_IPPEVKFNKPFVFLMIDQNTKVPLFMGK [CRISPP, consensus peptide based on factors present in the blood of patients with cancer] | dramatically reduced | did not inhibit | do not degrade or dismantle | inhibited
